From patent US12234212B2, “Peptide conjugates of microtubule-targeting agents as therapeutics” (Cybrexa 3, Inc., priority 2019, dated 2025) come the findings set out here.

The test system of one series is DLD-1 WT cells. As to the kind of experiment: Growth delay assay, DLD-1. It counts as cell-based. As to conditions: DLD-1 cells, 96 hours after addition of drug, cell count (Hoechst). On the procedure: (§1) Cells were plated in 96 well black walled-clear bottom plates (Griener), DLD-1 WT cells at 2500 cells per well, FaDu, and HeLa cells at 5000 cells per well, and HCT116 at 3000 cells per well, in growth media containing […]. Cells were allowed to adhere at room temperature for 60 minutes before returning to a 37 C, 5% CO2 incubator. After 24 hours, media was removed and replaced with fresh growth media containing various drug concentrations. Each drug concentration was added in triplicate. Non-drug treated controls contained growth media only. Cells were returned to the incubator. Ninety-six hours after addition of drug, cells were fixed with […] for 20 minutes and stained with Hoechst at 1 μg/mL. The plates were imaged on a Cytation 5 auto imager (BioTek) and cells were counted using CellProfiler (http://cellprofiler.org). The percent cell growth delay was calculated and data plotted using GraphPad Prism

The subject of a further series is HCT116. Description: Growth delay assay, HCT116. It counts as cell-based, human. As to conditions: HCT116 cells, 96 hours after addition of drug, cell count (Hoechst). On the procedure:
as §1

A further series relates to HeLa cells. As to the kind of experiment: Growth delay assay, HeLa. It counts as cell-based. As to conditions: 96 hours after addition of drug, cell count (Hoechst). On the procedure: as §1
The test system of a further series is FaDu. Description: Growth delay assay, FaDu. It counts as cell-based. As to conditions: FaDu cells, 96 hours after addition of drug, cell count (Hoechst). On the procedure:
as §1

Series [1] has as its system nude mice bearing HCT116 colorectal flank tumors. As to the kind of experiment: Mouse colorectal cancer model, Kaplan-Meier survival. It counts as in vivo. As to conditions: IP, QDX4; DM4 0.42 μmole/kg; Compound 5 0.21-0.42 μmole/kg; post-dosing period. On the procedure:
Six-week-old female athymic nude Foxn^nu mice were obtained from Taconic Labs (Cat #NCRNU-F) and were housed 5 per cage on Alpha-Dri bedding in a disposable caging system. Human HCT116 cells derived from colorectal carcinoma were diluted 1:1 in Phenol Red-free Matrigel and subcutaneously implanted into the left flank of each mouse at a density of 2.5×10^6 cells in 100 μL. When xenografts reached a mean volume of 100-200 mm^3, mice were randomized into groups and treated as detailed in the table below. Mice were administered intraperitoneal (IP) doses of vehicle or 0.21, 0.29, 0.35, 0.42 μmole/kg Compound 5 (equivalent to 1.1, 1.4, 1.7, or 2 mg/kg Compound 5) or 0.42 μmole/kg unconjugated DM4 (equivalent to 0.33 mg/kg unconjugated DM4). Doses were prepared by diluting 0.1 mg/μL DMSO stocks in 5% mannitol in citrate buffer and were administered QDX4 with a two day interval between the second and third doses, at a volume of 12 mL/kg (300 μL per 25 g mouse). Xenograft tumors were measured by calipers and volume was calculated using the equation for ellipsoid volume: Volume=π/6×(length)×(width)^2. Body weight of animals was measured at the same time as tumor volume assessment. Animals were removed from the study due to death, tumor size exceeding 2000 mm^3 or loss of >20% body weight. Kaplan-Meier analysis was used to evaluate survival rate based on death or removal from study.

For series [2], the system named is T1, Biotin-labeled human tubulin derived from HeLa cells (β-tubulin).
T1 construct: fused on or other part: Biotin label, used for capture on a streptavidin sensor chip
Description: Kinetic analysis of conjugate binding (Biacore surface plasmon resonance). As to conditions: Biacore S200, 25° C., immobilized tubulin; read-out: KD (affinity constant, steady state) for β-tubulin. The procedure:
Binding experiments were performed using a Biacore S200 instrument. A Series S sensor chip with pre-immobilized streptavidin was conditioned with 1 M NaCl in 50 mM NaOH. Biotin-labeled human tubulin derived from HeLa cells was immobilized to the sensor chip at a concentration of 125 μg/mL in HBS-P+ buffer at a flow rate of 10 μl/min. A final 3000 RU (response units) of protein was directly immobilized to the chip. After tubulin immobilization, the sensor chip was washed with 50% isopropanol, 50 mM NaOH and 1 M NaCl and subsequently allowed to equilibrate in assay buffer for 4 hours. A streptavidin-biotin capture blank (reference FC) was used to monitor non-specific binding.
To collect kinetic binding data, Compound 5 diluted in assay buffer was injected over the flow cells at concentrations ranging from 100 μM to 0.048 μM and 50 μM to 0.024 μM, at a flow rate of 60 μL/minute and a temperature of 25° C. The complex was allowed to dissociate for 60 seconds. Binding of compound to tubulin was monitored in real time to obtain on (Ka) and off (Koff) rates. The affinity constant (KD) was calculated by steady state kinetics.
On the technique in general: Surface plasmon resonance follows binding to a sensor surface in real time, without labels.

SMILES strings stand for the structures.

On to `COc1cc2cc(c1Cl)N(C)C(=O)C[C@H](OC(=O)[C@H](C)N(C)C(=O)CCS)C1(C)O[C@H]1[C@H](C)[C@@H]1C[C@@](O)(NC(=O)O1)[C@H](OC)/C=C/C=C(\C)C2` (stereo partly drawn) [R^2SH-1, [(1S,2R,3S,6S,16E,18E,20R,21S)-11-chloro-21-hydroxy-12,20-dimethoxy-2,5,9,16-tetramethyl-8,23-dioxo-4,24-dioxa-9,22-diazatetracyclo[19.3.1.110,14.03,5]hexacosa-10(26),11,13,16,18-pentaen-6-yl] (2S)-2-[methyl(3-sulfanylpropanoyl)amino]propanoate], for which the IC50 with DLD-1 WT cells (Homo sapiens) stood at 9.8 nM; with HCT116 (Homo sapiens, HCT-116) it was 4.3 nM; in the series on HeLa cells (Homo sapiens), 2.6 nM; in the series on FaDu (Homo sapiens) it was 2.8 nM.

`COc1cc2cc(c1Cl)N(C)C(=O)C[C@H](OC(=O)[C@H](C)N(C)C(=O)CCSSC[C@H](NC(=O)[C@H](Cc1c[nH]c3ccccc13)NC(=O)[C@H](CC(C)C)NC(=O)[C@H](CC(C)C)NC(=O)[C@H](CC(=O)O)NC(=O)[C@H](CC(C)C)NC(=O)[C@H](CC(C)C)NC(=O)[C@H](CC(C)C)NC(=O)[C@@H](NC(=O)[C@H](CC(=O)O)NC(=O)[C@@H](NC(=O)[C@@H]1CCCN1C(=O)[C@H](Cc1ccccc1)NC(=O)[C@H](CC(C)C)NC(=O)[C@H](CC(C)C)NC(=O)[C@H](CC(=O)O)NC(=O)[C@H](CC(C)C)NC(=O)[C@H](Cc1ccc(O)cc1)NC(=O)[C@H](C)NC(=O)[C@H](CCCNC(=N)N)NC(=O)[C@H](Cc1c[nH]c3ccccc13)NC(=O)[C@@H]1CCCN1C(=O)[C@H](CC(N)=O)NC(=O)[C@H](CCC(N)=O)NC(=O)[C@H](CC(=O)O)NC(=O)[C@H](CC(=O)O)NC(=O)[C@H](C)N)[C@@H](C)O)[C@@H](C)O)C(=O)NCC(=O)O)[C@]1(C)O[C@H]1[C@H](C)[C@@H]1C[C@@](O)(NC(=O)O1)[C@H](OC)/C=C/C=C(\C)C2` [Compound 1]: the IC50 in the series on DLD-1 WT cells is 60.5 nM; in the series with HCT116, 21.8 nM; with HeLa cells it was 7.4 nM; in the series with FaDu, 10.4 nM.

Turning to `COc1cc2cc(c1Cl)N(C)C(=O)C[C@H](OC(=O)[C@H](C)N(C)C(=O)CCC(C)(C)SSC[C@H](NC(=O)[C@H](Cc1c[nH]c3ccccc13)NC(=O)[C@H](CC(C)C)NC(=O)[C@H](CC(C)C)NC(=O)[C@H](CC(=O)O)NC(=O)[C@H](CC(C)C)NC(=O)[C@H](CC(C)C)NC(=O)[C@H](CC(C)C)NC(=O)[C@@H](NC(=O)[C@H](CC(=O)O)NC(=O)[C@@H](NC(=O)[C@@H]1CCCN1C(=O)[C@H](Cc1ccccc1)NC(=O)[C@H](CC(C)C)NC(=O)[C@H](CC(C)C)NC(=O)[C@H](CC(=O)O)NC(=O)[C@H](CC(C)C)NC(=O)[C@H](Cc1ccc(O)cc1)NC(=O)[C@H](C)NC(=O)[C@H](CCCNC(=N)N)NC(=O)[C@H](Cc1c[nH]c3ccccc13)NC(=O)[C@@H]1CCCN1C(=O)[C@H](CC(N)=O)NC(=O)[C@H](CCC(N)=O)NC(=O)[C@H](CC(=O)O)NC(=O)[C@H](CC(=O)O)NC(=O)[C@H](C)N)[C@@H](C)O)[C@@H](C)O)C(=O)NCC(=O)O)[C@]1(C)O[C@H]1[C@H](C)[C@@H]1C[C@@](O)(NC(=O)O1)[C@H](OC)/C=C/C=C(\C)C2` [Compound 5], the “survival / systemic toxicity (Kaplan-Meier)” value in series [1] is reported as “safely delivers amounts of DM4 in vivo”.

Regarding `COc1cc2cc(c1Cl)N(C)C(=O)C[C@H](OC(=O)[C@H](C)N(C)C(=O)CCC(C)(C)S)C1(C)O[C@H]1[C@H](C)[C@@H]1C[C@@](O)(NC(=O)O1)[C@H](OC)/C=C/C=C(\C)C2` (stereo partly drawn) [R^2SH-2, [(1S,2R,3S,6S,16E,18E,20R,21S)-11-chloro-21-hydroxy-12,20-dimethoxy-2,5,9,16-tetramethyl-8,23-dioxo-4,24-dioxa-9,22-diazatetracyclo[19.3.1.110,14.03,5]hexacosa-10,12,14(26),16,18-pentaen-6-yl] (2S)-2-[methyl-(4-methyl-4-sulfanyl-pentanoyl)amino]propanoate], the IC50 in the series on DLD-1 WT cells (Homo sapiens) is 0.45 nM; in the series with HCT116 (Homo sapiens, HCT-116) it was 0.2 nM; with HeLa cells (Homo sapiens), 0.02 nM; in the series on FaDu (Homo sapiens), 0.13 nM. Also, the “survival / systemic toxicity (Kaplan-Meier)” value in series [1] is “spontaneous death of half of the DM4 group of animals”. Besides, the Kd in series [2] turned out to be 3550 nM.

One may read the IC50 as the point on the concentration scale where inhibition reaches its midpoint. Read a low IC50 as higher potency. What is called Kd is a measure of binding affinity in units of concentration.
